From PubChem BioAssay AID256 (DTP/NCI, 2004) come the findings set out here.

Values joined by “and” are separate entries in the source; they are usually repeats but may differ in a detail not shown here. Identical values can stand only once. Toxic doses and inconclusive results are not listed.

In this assay the test system is CD2F1 mice, L1210 leukemia ip, survival T/C. Kind of assay: NCI In Vivo Anticancer Drug Screen. Data for tumor model L1210 Leukemia (intraperitoneal) in CD2F1 (CDF1) mice. Particulars: higher = longer survival. Summed up:
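Activity against a transplanted murine tumor was judged by comparing the compound group with a vehicle group. The outcome in the treated animals was divided by that in the controls.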

Setting [1] is: endpoint: mean survival time, dose: 200.0 mg/kg/injection, schedule: Q01DX001 (ip), vehicle: saline.
[2] abbreviates: endpoint: mean survival time, dose: 400.0 mg/kg/injection, schedule: Q01DX001 (ip), vehicle: saline.
Setting [3] is: endpoint: mean survival time, dose: 100.0 mg/kg/injection, schedule: Q01DX009 (ip), vehicle: saline with Tween-80.
Where [4] appears, read: endpoint: mean survival time, dose: 100.0 mg/kg/injection, schedule: Q04DX003 (ip), vehicle: saline with Tween-80.
[5] abbreviates: endpoint: mean survival time, dose: 200.0 mg/kg/injection, schedule: Q04DX003 (ip), vehicle: saline with Tween-80.
The mark [6] stands for this setting: endpoint: mean survival time, dose: 12.5 mg/kg/injection, schedule: Q01DX009 (ip), vehicle: water.
The mark [7] stands for this setting: endpoint: mean survival time, dose: 25.0 mg/kg/injection, schedule: Q01DX009 (ip), vehicle: water.
[8] abbreviates: endpoint: mean survival time, dose: 400.0 mg/kg/injection, schedule: Q04DX003 (ip), vehicle: saline with Tween-80.
[9] abbreviates: endpoint: mean survival time, dose: 200.0 mg/kg/injection, schedule: Q01DX009 (ip), vehicle: saline with Tween-80.
[10] abbreviates: endpoint: mean survival time, dose: 400.0 mg/kg/injection, schedule: Q01DX009 (ip), vehicle: saline with Tween-80.

Take `O=P1(NCCCl)OCCCN1CCCl` (stereo not drawn): the T/C reads like this: (endpoint: mean survival time, dose: 25.0 mg/kg/injection, schedule: Q01DX001 (ip), vehicle: DMSO) 111 % of control; (endpoint: mean survival time, dose: 25.0 mg/kg/injection, schedule: Q01DX001 (ip), vehicle: saline) 102 % of control; (endpoint: mean survival time, dose: 50.0 mg/kg/injection, schedule: Q01DX001 (ip), vehicle: saline) 122 % of control; (endpoint: mean survival time, dose: 100.0 mg/kg/injection, schedule: Q01DX001 (ip), vehicle: DMSO) 153 % of control; (endpoint: mean survival time, dose: 200.0 mg/kg/injection, schedule: Q01DX001 (ip), vehicle: DMSO) 397 % of control; under setting [1], 170 % of control. The T/C (endpoint: mean survival time, dose: 400.0 mg/kg/injection, schedule: Q01DX001 (ip), vehicle: DMSO) is 430 % of control; the T/C (endpoint: mean survival time, dose: 400.0 mg/kg/injection, schedule: Q01DX001 (ip), vehicle: clinical formulation) was 416 % of control; the T/C under setting [2] was 326 % of control and 685 % of control; the T/C (endpoint: mean survival time, dose: 600.0 mg/kg/injection, schedule: Q01DX001 (ip), vehicle: clinical formulation) is 437 % of control; the T/C (endpoint: mean survival time, dose: 600.0 mg/kg/injection, schedule: Q01DX001 (ip), vehicle: saline) was 451 % of control; the T/C (endpoint: median survival time, dose: 108.0 mg/kg/injection, schedule: Q01DX001 (ip), vehicle: water) was 155 % of control and 157 % of control. For the same compound, the T/C is 166 % of control and 173 % of control (endpoint: median survival time, dose: 180.0 mg/kg/injection, schedule: Q01DX001 (ip), vehicle: water); 315 % of control (endpoint: median survival time, dose: 300.0 mg/kg/injection, schedule: Q01DX001 (ip), vehicle: saline); 200 % of control and 215 % of control (endpoint: median survival time, dose: 300.0 mg/kg/injection, schedule: Q01DX001 (ip), vehicle: water); 223 % of control (endpoint: median survival time, dose: 300.0 mg/kg/injection, schedule: Q01DX001 (iv), vehicle: saline); 616 % of control (endpoint: median survival time, dose: 450.0 mg/kg/injection, schedule: Q01DX001 (ip), vehicle: saline); 616 % of control (endpoint: median survival time, dose: 450.0 mg/kg/injection, schedule: Q01DX001 (iv), vehicle: saline). Besides, the T/C (endpoint: median survival time, dose: 500.0 mg/kg/injection, schedule: Q01DX001 (ip), vehicle: water) was 65 % of control.
`COC1CC2C[CH]([Hg][Cl])C1C2` (stereo not drawn): the T/C is 106 % of control (endpoint: mean survival time, dose: 0.75 mg/kg/injection, schedule: Q01DX009 (ip), vehicle: saline); 106 % of control (endpoint: mean survival time, dose: 1.5 mg/kg/injection, schedule: Q01DX009 (ip), vehicle: saline); 103 % of control (endpoint: mean survival time, dose: 3.0 mg/kg/injection, schedule: Q01DX009 (ip), vehicle: saline); 97 % of control (endpoint: mean survival time, dose: 3.13 mg/kg/injection, schedule: Q01DX009 (ip), vehicle: saline with Tween-80); 103 % of control (endpoint: mean survival time, dose: 6.25 mg/kg/injection, schedule: Q01DX009 (ip), vehicle: saline with Tween-80).
For `[Cl][Pt+2]([Cl])([Cl])[Cl].[NH-]C1CCCCC1.[NH-]C1CCCCC1`, the T/C was 96 % of control (endpoint: mean survival time, dose: 12.5 mg/kg/injection, schedule: Q01DX009 (ip), vehicle: saline with Tween-80); 91 % of control (endpoint: mean survival time, dose: 25.0 mg/kg/injection, schedule: Q01DX009 (ip), vehicle: saline with Tween-80); 100 % of control (endpoint: mean survival time, dose: 50.0 mg/kg/injection, schedule: Q01DX009 (ip), vehicle: saline with Tween-80); 89 % of control under setting [3].
Turning to `Cc1ccc(N2CCN(CCCCCC(=O)O)CC2)cc1Cl`, the T/C by setting is: under setting [4], 106 % of control; (endpoint: mean survival time, dose: 176.0 mg/kg/injection, schedule: Q04DX003 (ip), vehicle: saline with Tween-80) 117 % of control; under setting [5], 104 % of control; (endpoint: mean survival time, dose: 264.0 mg/kg/injection, schedule: Q04DX003 (ip), vehicle: saline with Tween-80) 113 % of control.
With `O=[N+]([O-])c1ccccc1NS(=O)(=O)c1ccccc1`, the T/C runs as follows: (endpoint: mean survival time, dose: 100.0 mg/kg/injection, schedule: Q01DX001 (ip), vehicle: saline with Tween-80) 100 % of control; (endpoint: mean survival time, dose: 200.0 mg/kg/injection, schedule: Q01DX001 (ip), vehicle: saline with Tween-80) 102 % of control; (endpoint: mean survival time, dose: 400.0 mg/kg/injection, schedule: Q01DX001 (ip), vehicle: saline with Tween-80) 107 % of control.
For the compound `Nc1nc(N)c2nc(-c3ccc(Cl)c(Cl)c3)c(N)nc2n1`, the T/C reads like this: under setting [6], 97 % of control; under setting [7], 97 % of control; (endpoint: mean survival time, dose: 50.0 mg/kg/injection, schedule: Q01DX009 (ip), vehicle: water) 108 % of control; (endpoint: mean survival time, dose: 100.0 mg/kg/injection, schedule: Q01DX009 (ip), vehicle: water) 93 % of control.
On to `NCCc1c[nH]c2ccccc12` (tested in a mixture with another compound), for which the T/C was 97 % of control under setting [4], 101 % of control under setting [5] and 94 % of control under setting [8].
`C#CCN(Cc1ccc2nc(N)[nH]c(=O)c2c1)c1ccc(C(=O)NC(CCC(=O)O)C(=O)O)cc1` (stereo not drawn): the T/C is, setting by setting: (endpoint: median survival time, dose: 7.5 mg/kg/injection, schedule: Q01DX009 (ip), vehicle: sodium bicarbonate) 109 % of control; (endpoint: median survival time, dose: 15.0 mg/kg/injection, schedule: Q01DX009 (ip), vehicle: sodium bicarbonate) 105 % of control and 109 % of control; (endpoint: median survival time, dose: 25.0 mg/kg/injection, schedule: Q01DX005 (ip), vehicle: water) 108 % of control; (endpoint: median survival time, dose: 30.0 mg/kg/injection, schedule: Q01DX009 (ip), vehicle: sodium bicarbonate) 117 % of control and 109 % of control; (endpoint: median survival time, dose: 50.0 mg/kg/injection, schedule: Q01DX005 (ip), vehicle: water) 109 % of control; (endpoint: median survival time, dose: 86.4 mg/kg/injection, schedule: Q01DX005 (ip), vehicle: water) 121 % of control. In addition, the T/C was 156 % of control and 185 % of control (endpoint: median survival time, dose: 120.0 mg/kg/injection, schedule: Q01DX009 (ip), vehicle: sodium bicarbonate); 162 % of control (endpoint: median survival time, dose: 144.0 mg/kg/injection, schedule: Q01DX005 (ip), vehicle: water); 161 % of control (endpoint: median survival time, dose: 400.0 mg/kg/injection, schedule: Q01DX005 (ip), vehicle: water).
As for `CC1=CC(=O)CC(C)C2CC(C(C)C)CC12` (stereo not drawn), the T/C (endpoint: mean survival time, dose: 100.0 mg/kg/injection, schedule: Q01DX001 (ip), vehicle: saline) is 101 % of control; the T/C under setting [1] is 100 % of control; the T/C under setting [2] is 105 % of control.
As for `NCC1OC(OC2C(CO)OC(OC3C(O)C(N)CC(N)C3OC3OC(CO)C(O)CC3N)C2O)C(N)C(O)C1OC1OC(CO)C(O)C(O)C1O` (stereo not drawn), the T/C reads like this: (endpoint: mean survival time, dose: 100.0 mg/kg/injection, schedule: Q04DX002 (ip), vehicle: saline) 98 % of control; (endpoint: mean survival time, dose: 200.0 mg/kg/injection, schedule: Q04DX002 (ip), vehicle: saline) 92 % of control; (endpoint: mean survival time, dose: 400.0 mg/kg/injection, schedule: Q04DX002 (ip), vehicle: saline) 95 % of control.
Turning to `Cn1ccc(=Nc2ccc(NC(=O)c3ccc(N=c4ccn(C)c5ccc([N+](=O)[O-])cc45)cc3)cc2)cc1`, the T/C is 106 % of control (endpoint: mean survival time, dose: 1.56 mg/kg/injection, schedule: Q01DX009 (ip), vehicle: water); 112 % of control (endpoint: mean survival time, dose: 3.13 mg/kg/injection, schedule: Q01DX009 (ip), vehicle: water); 124 % of control (endpoint: mean survival time, dose: 6.25 mg/kg/injection, schedule: Q01DX009 (ip), vehicle: water); 181 % of control under setting [6]; 227 % of control under setting [7].
For `O/N=C1\CCCCC\C1=N/O.O/N=C1\CCCCC\C1=N/O.[Pt]`, the T/C reads like this: (endpoint: mean survival time, dose: 3.13 mg/kg/injection, schedule: Q04DX003 (ip), vehicle: dextrose) 104 % of control; (endpoint: mean survival time, dose: 6.25 mg/kg/injection, schedule: Q04DX003 (ip), vehicle: dextrose) 108 % of control; (endpoint: mean survival time, dose: 12.5 mg/kg/injection, schedule: Q04DX003 (ip), vehicle: dextrose) 98 % of control; (endpoint: mean survival time, dose: 25.0 mg/kg/injection, schedule: Q04DX003 (ip), vehicle: dextrose) 98 % of control and 101 % of control; (endpoint: mean survival time, dose: 50.0 mg/kg/injection, schedule: Q04DX003 (ip), vehicle: dextrose) 95 % of control and 106 % of control; (endpoint: mean survival time, dose: 100.0 mg/kg/injection, schedule: Q04DX003 (ip), vehicle: dextrose) 103 % of control. In addition, the T/C (endpoint: mean survival time, dose: 200.0 mg/kg/injection, schedule: Q04DX003 (ip), vehicle: dextrose) was 96 % of control and 98 % of control.
On to `CN(C)/C=N/N=C1c2ccccc2-c2ccccc21`, for which the T/C runs as follows: under setting [3], 93 % of control; under setting [4], 100 % of control; under setting [9], 98 % of control; under setting [5], 94 % of control; under setting [10], 90 % of control; under setting [8], 101 % of control.
For the compound `CCn1c(COc2ccc(Br)cc2)c(COC(=O)c2cccc(Cl)c2)c2ccccc21`, the T/C runs as follows: under setting [3], 94 % of control; under setting [9], 92 % of control; under setting [10], 94 % of control.
